# Test system: 5X-Gal4-tata-Luc or TK-Gal4-Luc
# Experiment: Autonomous repressor activity, Gal4 DBD fusions on Gal4-responsive reporter genes in HepG2 cells
# Assay type: cell-based
# Details: fused to Gal4 DBD, both reporter genes
substance,measurement,value
"NCoR: known transcriptional repressor, nuclear receptor co-repressor",effect on transcriptional activity of Gal4-responsive reporter genes,inhibit
